{"source": "paper PMC7285658", "about": "(Chemical communications (Cambridge, England), 2020)", "origin": "cited, not measured here", "target": "RSK1/2", "settings": "selective inhibitor of RSK1/2", "note": "pKi: −log10 of the molar value.", "data": [{"smiles": "CC(=O)O[C@@H]1[C@@H](OC(C)=O)[C@@H](O)[C@H](Oc2c(-c3ccc(O)cc3)oc3cc(O)cc(O)c3c2=O)O[C@H]1C", "note": "[SL0101]", "values": [{"measurement": "pKi", "result": "~6.00"}]}]}
